Data as given in US20240294543A1, “CYCLOHEPTA-THIENO-DIAZEPINE DERIVATIVES AS GABA A GAMMA1 PAM” (Hoffmann-La Roche Inc., priority 2021, published 2024).
Like-named read-outs stand apart in the source and are kept apart here.

Columns and labels:
[1] = molecular target: human GABAA α1β2γ1 receptor (Homo sapiens (Human), UniProt P14867+Q8N1C3); assay: Radioligand binding assay, competition for [3H]RO7239181, γ1-containing GABAA subtypes; conditions: [3H]RO7239181 20-30 nM, Table 1
[2] = molecular target: human GABAA α2β2γ1 receptor (Homo sapiens (Human), UniProt P47869+Q8N1C3); assay: as above; conditions: Ki h-GABAA α2β2γ1, membranes of HEK293F cells, [3H]RO7239181 20-30 nM
[3] = molecular target: human GABAA α1β3γ2 receptor (Homo sapiens (Human), UniProt P14867+P18507); assay: Radioligand binding assay, competition for [3H]Flumazenil, γ2-containing GABAA subtypes; conditions: for γ2/γ1 Selectivity Ratio: Ki α1β3γ2 (nM)/Ki α2β2γ1 (nM); for LogSel: Log[Ki α1β3γ2 (nM)/Ki α2β2γ1 (nM)]
How it was run: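 Competition against [3H]Flumazenil binding in HEK293F cells transiently expressing human α1β3γ2 receptors, pellets resuspended in mannitol buffer pH 7,2-7,4. Incubated to equilibrium 1 hour at 4° C, filtered and washed with ice-cold 50 mM Tris pH 7.5, bound radioactivity by liquid scintillation counting. Ki values are means of two determinations.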

[4] = Ki h-GABAA α1β2γ1, membranes of HEK293F cells
[5] = HEK293F cells, [3H]Flumazenil 1 nM, Table 1, read-out: Ki h-GABAA α1β3γ2
[6] = membranes of HEK293F cells, read-out: Ki h-GABAA α1β2γ1

SMILES	Ki [1, 4] [nM]	Ki ([2]; Table 1) [nM]	Ki ([2]; Table 2) [nM]	Ki [3] [nM]	γ2/γ1 Selectivity Ratio ([3]; Table 1)	LogSel ([3]; Table 1)	Ki [3, 5] [nM]	Ki [1, 6] [nM]
Cc1nnc2n1-c1sc3c(c1C(c1c(F)cccc1Cl)=N[C@H]2C)COCCC3 [Example 61, (7S)-9-(2-chloro-6-fluoro-phenyl)-3,7-dimethyl-13-oxa-18-thia-2,4,5,8-tetrazatetracyclo[8.8.0.02,6.011,17]octadeca-1(10),3,5,8,11(17)-pentaene]	49.1	20.6	20.6	2520	122.4	2.09		
C[C@@H]1N=C(c2c(F)cccc2F)c2c(sc3c2COCCO3)-n2nc(C(=O)NC[C@@](C)(O)C(F)(F)F)nc21 [Example 46, (7S)-9-(2,6-difluorophenyl)-7-methyl-N-[(2R)-3,3,3-trifluoro-2-hydroxy-2-methyl-propyl]-13,16-dioxa-18-thia-2,3,5,8-tetrazatetracyclo[8.8.0.02,6.011,17]octadeca-1(10),3,5,8,11(17)-pentaene-4-carboxamide]	60	15.2	15.2		284.3	2.45	4320	
Cc1nnc2n1-c1sc3c(c1C(c1c(F)cccc1F)=N[C@H]2C)CCCC(F)(F)C3 [Example 8, (7S)-9-(2,6-difluorophenyl)-15,15-difluoro-3,7-dimethyl-18-thia-2,4,5,8-tetrazatetracyclo[8.8.0.02,6.011,17]octadeca-1(10),3,5,8,11(17)-pentaene]	312	51.3	51.3	2760	53.8	1.73		
C[C@@H]1N=C(c2c(F)cccc2F)c2c(sc3c2COCCO3)-n2nc(C(=O)NCC(C)(C)O)nc21 [Example 45, (7S)-9-(2,6-difluorophenyl)-N-(2-hydroxy-2-methyl-propyl)-7-methyl-13,16-dioxa-18-thia-2,3,5,8-tetrazatetracyclo[8.8.0.02,6.011,17]octadeca-1(10),3,5,8,11(17)-pentaene-4-carboxamide]		13.6	13.6		232.1	2.37	3150	103
Cc1nnc2n1-c1sc3c(c1C(c1c(F)cccc1F)=N[C@H]2C)CCCCO3 [Example 19, (7S)-9-(2,6-difluorophenyl)-3,7-dimethyl-16-oxa-18-thia-2,4,5,8-tetrazatetracyclo[8.8.0.02,6.011,17]octadeca-1(10),3,5,8,11(17)-pentaene]	80.5	16.8	16.9	615	36.5	1.56		
Cc1nnc2n1-c1sc3c(c1C(c1c(F)cccc1F)=N[C@H]2C)CCC[C@H](F)C3 (single isomer, unassigned) [Example 17]	30.2	4.31	4.3	584	135.6	2.13		
C[C@@H]1N=C(c2c(F)cccc2F)c2c(sc3c2COC[C@H](C)O3)-n2nc(C(=O)N3CC(F)C3)nc21 [Example 40, [(7S,15S)-9-(2,6-difluorophenyl)-7,15-dimethyl-13,16-dioxa-18-thia-2,3,5,8-tetrazatetracyclo[8.8.0.02,6.011,17]octadeca-1(10),3,5,8,11(17)-pentaen-4-yl]-(3-fluoroazetidin-1-yl)methanone]		20.5	20.5		568.5	2.75	11600	286
